Laboratory results as given in US20240225985A1, “BRIGHTENING COMPOSITIONS AND METHODS OF USE” (Alastin Skincare, Inc., priority 2021, published 2024).
Entries after “also recorded” stand apart in the source; their conditions may differ.

What was measured:
[1] = system: melanocytes; assay: In vitro melanocyte comparative analysis via absorbance readings (melanin production); type: cell-based; details: for Absorbance 405 nm / Absorbance 490 nm / Absorbance 492 nm: 4 days, control = 0.0 row; for Regulation of melanogenesis (decreased absorption denoting decreased melanin formation): melanocytes, summary of Table 10
Method: Melanocytes were cultured in 6-well plates containing growth media. Once confluent, 2 concentrations of each of the 10 compounds were added to the cells in triplicate wells for 4 days. There were a total of eleven 6-well plates, one for each compound treatment and one for the vehicle control. Absorbance readings were taken on the lysates prepared for each well of the 6-well plates, normalizing for cells counts. The model was initially tested for accuracy and validated using hexapeptide-12 in view of strong gene expression results with melanocyte cell line in the first study—confirmation of decreased stimulation was obtained. Additional validation was carried out using MSH addition to media to confirm increased stimulation of melanin production. The following compounds used in this study are seen in Table 9.

[2] = system: endothelial (HUVEC) cells; assay: Gene expression study (RNA sequencing) in endothelial (HUVEC) cells; type: cell-based, human; details: 24 hours of compound exposure
Method: (§1) Four cell types associated with pigmentation pathways—melanocytes, keratinocytes, fibroblasts and endothelial (HUVEC) cells—were analyzed for gene expression.
(§2) To simulate the UV stimulatory pigmentation pathway process, melanocytes were pre-treated with PGE2, a normal direct consequence of UV light exposure usually emanating from exposed keratinocytes. After the 48 hour attachment culture, these melanocytes were induced with 10 uM PGE2 in melanocyte media for 24 hrs. The four primary human adult dermal cell lines were cultured and plated in well plates in triplicate and then treated with 11 different compound treatments (plus DMSO control). After 48 hours of attachment culture, the remaining fibroblasts, HUVECs and keratinocytes were treated with the test compounds listed in Table 8.
(§3) After 24 hours of compound exposure, RNA lysate preparation was carried out and samples were shipped to MedGenome for RNA extraction, library construction and sequencing to 25M paired end 100 bp reads per sample. Library prep and sequencing was completed at MedGenome.

[3] = system: hTERT-immortalized dermal melanocytes; assay: Melanocyte assay, daily inspection of cell morphology; type: cell-based, human; details: both concentrations of Table 11; five-day dosing period
Method: Once the melanocytes were 100% confluent in 6-well plates, the melanocyte growth media was removed and the melanocytes were treated with media containing the above compounds; duplicate wells for each compound/concentration listed above. The duplicate vehicle control wells were fed melanocyte growth media only or melanocyte growth media with DMSO (10 uL per 10 mL melanocyte growth media).
The cells were fed the appropriate media for the next 5 days. Each day, the cells were inspected for morphology.

[4] = system: facial dyschromia and/or hyperpigmentation; assay: Clinical study, participant questionnaire; type: in vivo, human
Source text: (§4) Participants underwent up to 8 study visits: screening, baseline, and 3 follow-up visits in the main study, and a 12-week extension study extended to participants at the week 12 follow up visit, which included an additional 3 follow-up visits to be conducted over 12 weeks: week 16, 20, and a final visit at week 24. At the initial screening visit, participants were consented prior to any study procedures. Medical/aesthetic history, concomitant medications, and study eligibility were collected and assessed. The following procedures were performed at Baseline: Investigator assessments, photography, Optical Coherence Tomography (OCT) imaging of the skin (only at select sites). […] Participants were asked to return to the office for follow-up visits at 4, 8, and 12 weeks. […] Participants randomized to the topical study product continued use of the product throughout the duration of the study, along with the study provided cleanser and sunscreen to apply to their facial skin as previously instructed.

[5] = system: facial skin; details: human, in vivo, 12 weeks
Source text: Adverse events as assessed by investigators is an extremely important parameter for determining potential shortcomings of a product for treatment.

[6] = system: facial dyschromia and/or hyperpigmentation; assay: Clinical study, investigator assessment of facial skin severity; type: in vivo, human; details: scale 0-9
Source text: Forty-three (43) participants (male and female; skin types I-IV; mean age 49.2) with mild to severe facial dyschromia and/or hyperpigmentation on the face were enrolled. Participants provided consent and agreed to limit their sun exposure for the duration of the study. Participants were required to comply with the skincare regimen and return for follow-up visits. This study population was deemed a large enough sample size for safety and efficacy. Only eligible participants were selected to participate. Participants that were enrolled and completed the 3-month study for this protocol were eligible to participate in the 3-month extension study.
as §4
(§5) The products were supplied in a kit with a number and then dispensed according to the baseline grading of dyschromia.
As summarized in Table 15, investigator assessment of facial skin severity considered the overall appearance of dyschromia, skin tone (clarity and evenness), radiance, and skin texture, on the following scale: 0=none; 1-3=mild; 4-6=moderate; 7-9=severe.

[7] = system: facial skin; assay: Clinical study, participant assessment of tolerability (burning/stinging, tingling, itching); type: in vivo, human
Source text: as §4

[8] = system: facial skin; assay: Clinical study, investigator assessment of tolerability (erythema, dryness, peeling); type: in vivo, human
Source text: as §4

[9] = system: facial dyschromia and/or hyperpigmentation; assay: Clinical study, investigator mMASI scoring; type: in vivo, human
Source text: as §4, §5
Investigator mMASI scoring was performed using a modified MASI scoring method depicted in FIG. 13.

[10] = system: keratinocytes; assay: Gene expression study (RNA sequencing) in keratinocytes; type: cell-based, human; details: 24 hours of compound exposure
Method: as §1, §2, §3

[11] = higher concentration (Lactoferrin 1000, HEX-11 200, Phosphatidylserine 500, Silymarin 20, Sesamol 100, Tranexamic Acid 1000, HEX-12 4.9, ug/mL or ug/uL; Phytoene/Phytofluene 5.00%)
[12] = lower concentration (Lactoferrin 500, HEX-11 100, Phosphatidylserine 250, Silymarin 10, Sesamol 50, Tranexamic Acid 500, HEX-12 2.9, ug/mL or ug/uL; Phytoene/Phytofluene 2.50%)
[13] = change week 0 to week 12, N = 44 study product, N = 42 HQ4%
[14] = week 0 (baseline), N = 44 study product, N = 42 HQ4%
[15] = week 12, N = 44 study product, N = 42 HQ4%

## Phosphatidylserine
[1]; [11]
  Absorbance 405 nm: 0.61
  Absorbance 490 nm: 0.38
  Absorbance 492 nm: 0.288
[1]; [12]
  Absorbance 405 nm: 0.686
  Absorbance 490 nm: 0.438
  Absorbance 492 nm: 0.338
[1]
  Regulation of melanogenesis (decreased absorption denoting decreased melanin formation): Regulation of melanogenesis was observed
[2]
  activity on EDN1 and other melanogenic genes in HUVECs: potent activity; also recorded: significant effects on melanogenesis activity

## C/C=C1/[C@H](O[C@@H]2O[C@H](CO)[C@@H](O)[C@H](O)[C@H]2O)OC=C(C(=O)OC)[C@H]1CC(=O)OCCc1ccc(O)c(O)c1 [Oleuropein]
[3]
  melanocyte morphology / survival on daily inspection: nearly all melanocytes were dead 72 hours post-initial dosing

## Oc1ccc(O)cc1 [HQ 4%, Hydroquinone]
[4]; Week 4
  Improved the evenness of my skin tone, % Agree or Somewhat Agree: 76.19%
  Improved the overall appearance of my skin, % Agree or Somewhat Agree: 76.19%
  Lessened the appearance of the dark spots and discoloration on my skin, % Agree or Somewhat Agree: 80.95%
  Made me feel more confident in the way my skin looks, % Agree or Somewhat Agree: 61.90%
  Made my skin look brighter and more radiant, % Agree or Somewhat Agree: 66.67%
  Made my skin look healthier, % Agree or Somewhat Agree: 61.90%
  Made my skin look more youthful, % Agree or Somewhat Agree: 42.86%
[4]; Week 8
  Improved the overall appearance of my skin, % Agree or Somewhat Agree: 85.71%
  Lessened the appearance of the dark spots and discoloration on my skin, % Agree or Somewhat Agree: 80.95%
  Made me feel more confident in the way my skin looks, % Agree or Somewhat Agree: 61.90%
  Made my skin look brighter and more radiant, % Agree or Somewhat Agree: 66.67%
  Made my skin look healthier, % Agree or Somewhat Agree: 71.43%
  Made my skin look more youthful, % Agree or Somewhat Agree: 71.43%
[4]; Week 12
  Improved the evenness of my skin tone, % Agree or Somewhat Agree: 85.71%
  Improved the overall appearance of my skin, % Agree or Somewhat Agree: 85.71%
  Lessened the appearance of the dark spots and discoloration on my skin, % Agree or Somewhat Agree: 76.19%
  Made me feel more confident in the way my skin looks, % Agree or Somewhat Agree: 61.90%
  Made my skin look brighter and more radiant, % Agree or Somewhat Agree: 90.48%
  Made my skin look healthier, % Agree or Somewhat Agree: 85.71%
  Made my skin look more youthful, % Agree or Somewhat Agree: 71.43%
[4]; Week &
  Improved the evenness of my skin tone, % Agree or Somewhat Agree: 85.71%
[5]
  adverse events, percent of population: 23.8%
  total number of adverse events reported: 5
[6]; change week 0 to week 12
  Dyschromia, investigator score, mean change: 0.9
  Radiance, investigator score, mean change: 0.3
  Skin tone, investigator score, mean change: 0.9
  Texture, investigator score, mean change: 0
[6]; week 0 (baseline)
  Dyschromia, investigator score, mean: 5.7
  Radiance, investigator score, mean: 5
  Skin tone, investigator score, mean: 5.5
  Texture, investigator score, mean: 4.2
[6]; week 12
  Dyschromia, investigator score, mean: 4.8
  Radiance, investigator score, mean: 4.6
  Skin tone, investigator score, mean: 4.7
  Texture, investigator score, mean: 4.2
[7]; Week 4
  Burning/Stinging, number of participants and grade: 6 minimal
  Burning/Stinging, percent of participants: 27%
  Itching, percent of participants: 36%
  Tingling, percent of participants: 18%
[7]; Week 8
  Burning/Stinging, percent of participants: 9.5%
  Itching, number of participants and grade: 1 minimal
  Itching, percent of participants: 4.7%
  Tingling, number of participants and grade: 1 mild
  Tingling, percent of participants: 4.7%
[7]; Week 12
  Burning/Stinging, number of participants and grade: 2 minimal
  Burning/Stinging, percent of participants: 9.5%
  Itching, percent of participants: 9.5%
  Tingling, number of participants and grade: 1 minimal
  Tingling, percent of participants: 4.7%
[7]; summary of Table 19
  participant-reported irritation versus the study product population: irritation is increased across all parameters
[8]; Week 4
  Dryness, percent of participants: 13.6%
  Erythema, percent of participants: 23%
  Peeling, percent of participants: 13.6%
[8]; Week 8
  Dryness, percent of participants: 14%
  Erythema, percent of participants: 14%
  Peeling, number of participants and grade: 1 mild
  Peeling, percent of participants: 4.7%
[8]; Week 12
  Dryness, number of participants and grade: 0
  Erythema, number of participants and grade: 4 minimal
  Erythema, percent of participants: 19%
  Peeling, number of participants and grade: 0
[9]; Week 12
  Left mMASI, mean: 1.8
  Left malar, mean: 6
  Right mMASI, mean: 1.9
  Right malar, mean: 6.3
  Total mMASI, mean: 5.2
[9]; change week 0 to week 12
  Left mMASI, mean change: 0.3
  Left malar, mean change: 1.1
  Right mMASI, mean change: 0.3
  Right malar, mean change: 1.1
  Total mMASI, mean change: 1
[9]; [13]
  Combined right and left mMASI, mean change: 0.3
  Combined right and left malar, mean change: 1.1
[9]; summary of Table 17
  improvement in mMASI scoring at 12 weeks versus baseline: no such improvement
[9]; week 0 (baseline)
  Left mMASI, mean: 2.2
  Left malar, mean: 7.2
  Right mMASI, mean: 2.2
  Right malar, mean: 7.4
  Total mMASI, mean: 6.1
[9]; [14]
  Combined right and left mMASI, mean: 2.2
  Combined right and left malar, mean: 7.3
[9]; [15]
  Combined right and left mMASI, mean: 1.9
  Combined right and left malar, mean: 6.2

## Hexapeptide-11
[10]
  melanogenesis gene activity in keratinocytes: active ingredient in melanogenesis activity; also recorded: significant effects on melanogenesis activity
[1]; [11]
  Absorbance 405 nm: 0.338
  Absorbance 490 nm: 0.227
  Absorbance 492 nm: 0.163
[1]; [12]
  Absorbance 405 nm: 0.461
  Absorbance 490 nm: 0.288
  Absorbance 492 nm: 0.209
[1]
  Regulation of melanogenesis (decreased absorption denoting decreased melanin formation): Regulation of melanogenesis was observed
